{"source": "patent US8334316B2", "about": "“Substituted organosulfur compounds and methods of using thereof” (ACEA Biosciences, Inc., priority 2004, dated 2012)", "key": {"[1]": {"tested_on": "Bcap-37 human breast cancer", "assay": "Bcap-37 human breast cancer xenograft in nude mice, dosing from 24 h after transplantation (Example 3)", "assay_type": "in vivo", "details": "for tumor inhibition rate %: vs solvent control", "text": "Both male and female mice were used. […] Test control. […] Preparation and Administration of Test Compounds. […] For human tumor xenograft model, all used materials, including animal food, animal cage, supporting materials and apparatus contacted by animals, were high-pressure sterilized. Nude mice were maintained in laminar flow shelves under SPF condition. After tumor transplantation, mouse weight and tumor size in each compound dosage group were dynamically monitored and plotted."}, "[2]": {"tested_on": "purified bovine brain tubulin", "assay": "In vitro microtubule assembly assay with pure (MAP-free) tubulin, light scattering OD400", "assay_type": "biochemical", "procedure": "Microtubule Assembly Assays. Microtubule seeds were synthesized by incubating purified bovine brain tubulin with 1 mM GTP, 10% glycerol and 10% DMSO at 35° C. for 30 minutes, followed by shearing by passing the assembled microtubules 6 times through a 27 gauge needle. Microtubule assembly was assayed by adding 27.5 ul of microtubule seeds to spectrophotometer cuvettes (maintained at 35° C.) containing 247.5 ul purified bovine brain tubulin in a PEM-100 buffer (100 mM Pipes pH=6.8, 1 mM […], 1 mM MgSO4) supplemented with 1 mM GTP (and drug where applicable) and monitoring the OD400 for 2 hours. Since the compounds are dissolved in DMSO and DMSO can have a significant effect on microtubule assembly, DMSO was added to all cuvettes so as to equal the largest volume of drug added to reactions. It should be noted that the initial velocity of the microtubule assembly reactions is so fast that one can not always catch the initial rise on the light scattering profile because it is occurring while samples are being prepared. However, all samples start at the same optical density, since they are identical with the exception of the drug being introduced."}, "[3]": {"tested_on": "purified bovine brain tubulin", "assay": "In vitro microtubule dynamics (dynamic instability) assay, video microscopy", "assay_type": "biochemical", "procedure": "Tubulin Purification and Microtubule Dynamics Assays. Tubulin was purified, as described in the literature (“Kinetic stabilization of microtubule dynamic instability in vitro by vinblastine”, Toso, R. J., Jordan, […]., Matsumoto, B. and Wilson, L., Biochemistry, 1993, 32, 1285-1293). Briefly, microtubule-associated protein-rich bovine brain microtubule protein was prepared by three cycles of assembly and disassembly. Tubulin was purified from other microtubule proteins by elution through a Whatman P-11 phosphocellulose column equilibrated in PEM50 (50 mM Pipes, 1 mM MgSO4, 1 mM EGTA, 0.1 mM GTP). Purified tubulin (>99% pure) was drop-frozen in liquid nitrogen and stored at -70° C. […] The dynamics of individual microtubules were recorded at 37° C. using differential interference contrast enhanced video microscopy. The ends were designated as plus or minus on the basis of the growth rate, the number of microtubules that grew at opposite ends of the seeds, and the relative lengths of the microtubules (Panda, D., Goode, […]. and Wilson, L., Kinetic stabilization of microtubule dynamics at steady state by tau and microtubule-binding domains of tau, Biochemistry, 1995, 34, 11117-11127; Walker, R. A., O'Brien, […]., Voter, W. A., Erickson, H. P. and Salmon, E. D., Dynamic instability of individual microtubules analyzed by video light microscopy: rate constants and transition frequencies, J. Cell Biol. 1988, 107, 1437-1448). Plus ends were analyzed for 10 minutes per slide during the steady-state phase of polymerization ( 45 min after initiation of polymerization). Life histories of individual microtubules were collected as described by Panda et al. 1995 (Panda, D., Goode, […]. and Wilson, L., Kinetic stabilization of microtubule dynamics at steady state by tau and microtubule-binding domains of tau, Biochemistry, 1995, 34 11117-11127) with modifications. Data points were collected at 1-3 s intervals. […] Average rates, lengths and durations are the averages of independent events. The catastrophe frequency was calculated by dividing the number of shortening events by the total time of growth and attenuation tracked, and rescue frequency was calculated by dividing the number of rescue events by the total time of shortening tracked. To control for experimental error, each condition was filmed over multiple days using at least two distinct tubulin/GTP mixtures (2-3 slides each). No gross variation in microtubule dynamics was observed between mixtures or slides of a given condition. The concentration of drug used in dynamic instability assays was chosen by initially observing microtubules stabilized with half the concentration used in microtubule assembly assays."}, "[4]": {"tested_on": "ao10/17 human ovarian cancer", "assay": "ao10/17 human ovarian cancer xenograft in nude mice (Example 4)", "assay_type": "in vivo", "details": "20 mg/kg iv x7 qd; 0 d (beginning)"}, "[5]": {"details": "8 mg/kg iv x7 qd, 7 days after transplantation"}, "[6]": {"details": "20 mg/kg iv x7 qd, 7 days after transplantation"}, "[7]": {"details": "50 mg/kg iv x7 qd, 7 days after transplantation"}, "[8]": {"details": "shortening events, ACEA100108 .2uM"}}, "note": "“And” between values parts separate entries of the source, which are not always exact repeats. Equal values may be shown once. Marks after values point to notes of the source that are not given here.", "data": [{"smiles": "Fc1ccc(CSSSCc2ccc(F)cc2)cc1", "note": "[ACEA100108, Di(p-fluorobenzyl)trisulfide]", "values": [{"measurement": "Mice with palpable tumor / total mice", "setting": "[1]; [5]", "result": "4/6††"}, {"measurement": "Tumor volume (cm^3)", "setting": "[1]; [5]", "result": 0.01, "unit": "cm^3"}, {"measurement": "Tumor volume (cm^3)", "setting": "[1]; 8 mg/kg iv x7 qd, 14 d", "result": "0.068 ± 0.02", "unit": "cm^3"}, {"measurement": "Tumor volume (cm^3)", "setting": "[1]; 8 mg/kg iv x7 qd, 21 d", "result": "0.214 ± 0.04", "unit": "cm^3"}, {"measurement": "Tumor volume (cm^3)", "setting": "[1]; 8 mg/kg iv x7 qd, 24 d (end)", "result": "0.985 cm^3 and 0.985 ± 0.4 cm^3"}, {"measurement": "TV inhibition rate % T/C", "setting": "[1]; 8 mg/kg/d iv x7 qd", "result": 56.15, "unit": "%"}, {"measurement": "Tumor weight", "setting": "[1]; 8 mg/kg/d iv x7 qd", "result": "1.18 ± 0.23", "unit": "g"}, {"measurement": "Body weight of mice", "setting": "[1]; 8 mg/kg/d iv x7 qd, 0 day (beginning)", "result": "18.0 g and 18 ± 0.6 g"}, {"measurement": "Body weight of mice", "setting": "[1]; 8 mg/kg/d iv x7 qd, 7 day", "result": "19.5 ± 1", "unit": "g"}, {"measurement": "Body weight of mice", "setting": "[1]; 8 mg/kg/d iv x7 qd, 14 d", "result": "21.5 ± 1", "unit": "g"}, {"measurement": "Body weight of mice", "setting": "[1]; 8 mg/kg/d iv x7 qd, 21 d", "result": "22.3 ± 1.6", "unit": "g"}, {"measurement": "Body weight of mice", "setting": "[1]; 8 mg/kg/d iv x7 qd, 24 d (end)", "result": "23.0 g and 23 ± 1.5 g"}, {"measurement": "tumor inhibition rate %", "setting": "[1]; 8 mg/kg/d iv x7 qd", "result": 31.40, "unit": "%"}, {"measurement": "Mice with palpable tumor / total mice", "setting": "[1]; [6]", "result": "5/6††"}, {"measurement": "Tumor volume (cm^3)", "setting": "[1]; [6]", "result": 0.01, "unit": "cm^3"}, {"measurement": "Tumor volume (cm^3)", "setting": "[1]; 20 mg/kg iv x7 qd, 14 d", "result": "0.049 ± 0.03", "unit": "cm^3"}, {"measurement": "Tumor volume (cm^3)", "setting": "[1]; 20 mg/kg iv x7 qd, 21 d", "result": "0.167 ± 0.03", "unit": "cm^3"}, {"measurement": "Tumor volume (cm^3)", "setting": "[1]; 20 mg/kg iv x7 qd, 24 d (end)", "result": "0.488 cm^3 and 0.488 ± 0.07 cm^3"}, {"measurement": "TV inhibition rate % T/C", "setting": "[1]; 20 mg/kg/d iv x7 qd", "result": 27.82, "unit": "%"}, {"measurement": "Tumor weight", "setting": "[1]; 20 mg/kg/d iv x7 qd", "result": "0.755 ± 0.09", "unit": "g"}, {"measurement": "Body weight of mice", "setting": "[1]; 20 mg/kg/d iv x7 qd, 0 day (beginning)", "result": "17.6 g and 17.6 ± 0.8 g"}, {"measurement": "Body weight of mice", "setting": "[1]; 20 mg/kg/d iv x7 qd, 7 day", "result": "19.7 ± 1", "unit": "g"}, {"measurement": "Body weight of mice", "setting": "[1]; 20 mg/kg/d iv x7 qd, 14 d", "result": "20.8 ± 1", "unit": "g"}, {"measurement": "Body weight of mice", "setting": "[1]; 20 mg/kg/d iv x7 qd, 21 d", "result": "22.7 ± 1.2", "unit": "g"}, {"measurement": "Body weight of mice", "setting": "[1]; 20 mg/kg/d iv x7 qd, 24 d (end)", "result": "23.0 g and 23 ± 1.2 g"}, {"measurement": "tumor inhibition rate %", "setting": "[1]; 20 mg/kg/d iv x7 qd", "result": 56.10, "unit": "%"}, {"measurement": "Mice with palpable tumor / total mice", "setting": "[1]; [7]", "result": "3/6††"}, {"measurement": "Tumor volume (cm^3)", "setting": "[1]; [7]", "result": 0.01, "unit": "cm^3"}, {"measurement": "Tumor volume (cm^3)", "setting": "[1]; 50 mg/kg iv x7 qd, 14 d", "result": "0.023 ± 0.02", "unit": "cm^3"}, {"measurement": "Tumor volume (cm^3)", "setting": "[1]; 50 mg/kg iv x7 qd, 21 d", "result": "0.112 ± 0.03", "unit": "cm^3"}, {"measurement": "Tumor volume (cm^3)", "setting": "[1]; 50 mg/kg iv x7 qd, 24 d (end)", "result": "0.310 cm^3 and 0.31 ± 0.05 cm^3"}, {"measurement": "TV inhibition rate % T/C", "setting": "[1]; 50 mg/kg/d iv x7 qd", "result": 17.67, "unit": "%"}, {"measurement": "Tumor weight", "setting": "[1]; 50 mg/kg/d iv x7 qd", "result": "0.617 ± 0.09", "unit": "g"}, {"measurement": "Body weight of mice", "setting": "[1]; 50 mg/kg/d iv x7 qd, 0 day (beginning)", "result": "18.1 g and 18.1 ± 1.1 g"}, {"measurement": "Body weight of mice", "setting": "[1]; 50 mg/kg/d iv x7 qd, 7 day", "result": "18.8 ± 0.8", "unit": "g"}, {"measurement": "Body weight of mice", "setting": "[1]; 50 mg/kg/d iv x7 qd, 14 d", "result": "20.5 ± 1", "unit": "g"}, {"measurement": "Body weight of mice", "setting": "[1]; 50 mg/kg/d iv x7 qd, 21 d", "result": "22.2 ± 1.2", "unit": "g"}, {"measurement": "Body weight of mice", "setting": "[1]; 50 mg/kg/d iv x7 qd, 24 d (end)", "result": "23.0 g and 23 ± 1.2 g"}, {"measurement": "tumor inhibition rate %", "setting": "[1]; 50 mg/kg/d iv x7 qd", "result": 64.13, "unit": "%"}, {"measurement": "Effect on extent of microtubule assembly", "setting": "[2]; 27 uM", "result": "marked inhibitory effect"}, {"measurement": "Effect on microtubule assembly", "setting": "[2]; lower dosages", "result": "minimal effects upon microtubule assembly"}, {"measurement": "% time spent in attenuation phase", "setting": "[3]; ACEA100108 .2uM", "result": 69, "unit": "%"}, {"measurement": "% time spent in growth phase", "setting": "[3]; ACEA100108 .2uM", "result": 30, "unit": "%"}, {"measurement": "% time spent in shortening phase", "setting": "[3]; ACEA100108 .2uM", "result": 1, "unit": "%"}, {"measurement": "Dynamicity", "setting": "[3]; ACEA100108 .2uM", "result": 0.83, "unit": "um/min"}, {"measurement": "Frequency of transitions ± SD: Catastrophes", "setting": "[3]; ACEA100108 .2uM", "result": "0.09 ± 0.03", "unit": "events/min"}, {"measurement": "Frequency of transitions ± SD: Rescues", "setting": "[3]; ACEA100108 .2uM", "result": "9.4 ± 3.0", "unit": "events/min"}, {"measurement": "Frequency of transitions ± SD: Total", "setting": "[3]; ACEA100108 .2uM", "result": "0.32 ± 0.06", "unit": "events/min"}, {"measurement": "Growth Rate ± SEM", "setting": "[3]; ACEA100108 .2uM", "result": "1.59 ± 0.1", "unit": "um/min"}, {"measurement": "Mean duration of attenuation ± SEM", "setting": "[3]; ACEA100108 .2uM", "result": "3.74 ± 0.7"}, {"measurement": "Shortening Rate ± SEM", "setting": "[3]; ACEA100108 .2uM", "result": "35.8 ± 4.3", "unit": "um/min"}, {"measurement": "Duration of Event", "setting": "[3]; growth events, ACEA100108 .2uM", "result": "2.04 ± 0.3", "unit": "min"}, {"measurement": "Length of Excursion", "setting": "[3]; growth events, ACEA100108 .2uM", "result": "3.24 ± 0.3", "unit": "um"}, {"measurement": "Effect on duration of growth events", "setting": "[3]; plus ends, steady state", "result": "increased the duration of growth events"}, {"measurement": "Effect on length of growth events", "setting": "[3]; plus ends, steady state", "result": "increased the duration of growth events and the average length of growth events"}, {"measurement": "Effect on length of shortening events", "setting": "[3]; plus ends, steady state", "result": "strong effect upon the length of shortening events"}, {"measurement": "Duration of Event", "setting": "[3]; [8]", "result": "0.11 ± 0.02", "unit": "min"}, {"measurement": "Length of Excursion", "setting": "[3]; [8]", "result": "3.79 ± 0.3", "unit": "um"}, {"measurement": "Body weight of mice", "setting": "[4]", "result": "17.2 g and 17.2 ± 1.2 g"}]}]}
